The source of these data is patent EP0306649A1, “3,5-Dihydroxycarboxylic acids and their derivatives, processes for their preparation, their use as medicaments, pharmaceutic preparations and intermediate products” (HOECHST AKTIENGESELLSCHAFT, priority 1987, dated 1989).

Read-outs that look alike come from different tables or passages of the source.

The test system of experiment [1] is Cholesterin-Biosynthese. As to the kind of experiment: Inhibition of cholesterol biosynthesis in cell culture by 14C precursor incorporation into cholesterol. The class given is cell-based. As to conditions: HEP G2-Zellen monolayers in lipoprotein-free medium; 1 h preincubation, then 3 h with 14C-Natriumacetat; potency relative to Mevinolin tested in the same way. From the text: 2) Prüfung auf Cholesterin-Biosynthese-Hemmung in Zellkulturen durch ¹⁴-Präkursoreinbau in Cholesterin.
Monolayers von HEP G2-Zellen in lipoproteinfreiem Nährmedium wurden mit entsprechenden Konzentrationen der Prüfsubstanzen 1 Stunde vorinkubiert; nach Zugabe des ¹⁴C-markierten Präkursors ¹⁴C-Natriumacetat wurde die Inkubation für 3 Stunden fortgesetzt. Danach wurde ein Teil der Zellen alkalisch verseift bei vorheriger Zugabe eines internen Standards von ³H-Cholesterin. Die Lipide der verseiften Zellen wurden mit Chloroform-Methanol extrahiert. Dieses Lipidgemisch wurde nach Zusatz von Träger-Cholesterin präparativ dünnschichtchromatographisch getrennt, die Cholesterin-Bande nach dem Sichtbarmachen mit Jod-Dämpfen isoliert und die aus dem ¹⁴C-Präkursor gebildete Menge ¹⁴C-Cholesterins szintigraphisch bestimmt. In einem aliquoten Teil der Zellen wurde Zellprotein bestimmt, sodaß die in der Zeiteinheit/mg Zellprotein aus ¹⁴C-Präkursor gebildete Menge ¹⁴C-Cholesterins berechnet werden kann. Zum Vergleich für die Hemmwirkung eines zugesetzten Prüfpräparates diente die Lösungsmittelkontrolle, sodaß direkt die Hemmung der Cholesterin-Biosynthese bei einer bestimmten molaren Konzentration des Prüfpräparates im Medium angegeben werden kann. […]

For experiment [2] the following is noted: human trial; cited from earlier work.
For experiment [3] the following is noted: rat; cited from earlier work.

In the case of `CC(C)C(CCC(O)CC(O)CC(=O)[O-])=C(c1ccc(F)cc1)c1ccc(F)cc1.[Na+]` (stereo not shown) [Beispiel 11n, 3,5-Dihydroxy-9,9-di-(4-flurophenyl)-8-isopropyl-8-nonensäure-Natriumsalz], in experiment [1], the “relative Weinstärke zu Mevinolin” value came out at 30%.

Take `CC(O)(CC(=O)O)CC(=O)O` [3-Hydroxy-3-methyl-glutarsäure]: the “cholesterinsenkende Wirkung” value in experiment [2] and in experiment [3] was “signifikante cholesterinsenkende Wirkung” in each case.

With `CC(C)C(C=CC(O)CC(O)CC(=O)[O-])=C(c1ccc(F)cc1)c1ccc(F)cc1.[Na+]` (stereo not shown) [Beispiel 11a, 9,9-Di-(4-fluorphenyl)-3,5-dihydroxy-8-isopropyl-6,8-nonadiensäure Natriumsalz], in experiment [1], the “relative Weinstärke zu Mevinolin” value amounted to 100%.
